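Results reflect a 48-hour exposure of cells in 96-well plates to compound at five concentrations. Abbreviation: GI50, concentration required for 50% inhibition of growth.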 The source made the active and inactive calls. Cut-off read from the data, not from the text of the source: active = GI50 up to about 1.1 µM and inactive = higher.

Some test systems named below: K562; SF-295; SR; BT-549; NCI/ADR-RES; RPMI-8226; PC-3; 786-0; DU-145; SNB-19; NCI-H226; A549; UO-31; MCF7; RXF 393; Malme-3M; HL-60; MDA-MB-231; UACC-62; Hs-578T.
Holding throughout (assay): growth of human tumour cells (NCI), 48 h

With `CCCCCCc1ccc(CCCCCCCC(=O)O)o1`, the GI50 is 22.3 µM (inactive) with K562; 55.5 µM (inactive) in the assay with SF-295; 44 µM (inactive) in the assay on SR; > 100 µM (inactive) with BT-549; > 100 µM (inactive) in the assay with NCI/ADR-RES; 39.6 µM (inactive) in the assay on RPMI-8226. Further, the GI50 with PC-3 was > 100 µM (inactive); in the assay on 786-0, > 100 µM (inactive); in the assay with DU-145 it was > 100 µM (inactive); with SNB-19, > 100 µM (inactive); with NCI-H226 it was 94 µM (inactive); in the assay with A549, 50 µM (inactive). Also, the GI50 with UO-31 is > 100 µM (inactive); in the assay with MCF7, 44.8 µM (inactive).

Turning to `O=C(Nc1ccccc1)N1CCNC1=S`, the GI50 in the assay on K562 is > 100 µM (inactive); in the assay with SF-295, > 100 µM (inactive); in the assay on SR, 69.2 µM (inactive); in the assay with RXF 393, 26.5 µM (inactive); in the assay on BT-549, 65.5 µM (inactive); in the assay with NCI/ADR-RES, > 100 µM (inactive). In addition, the GI50 in the assay with RPMI-8226 is > 100 µM (inactive); in the assay with Malme-3M, > 100 µM (inactive); in the assay with 786-0 it was > 100 µM (inactive); in the assay with DU-145 it was > 100 µM (inactive); in the assay on HL-60, > 100 µM (inactive); with NCI-H226, 87.5 µM (inactive). The GI50 in the assay with A549 is > 100 µM (inactive); in the assay with MDA-MB-231, > 100 µM (inactive); with UACC-62, > 100 µM (inactive); in the assay with UO-31 it was 57.3 µM (inactive); in the assay on MCF7, > 100 µM (inactive); in the assay with Hs-578T, 48 µM (inactive).

As to `COC1=CC(=O)c2c(CCNC(=O)OCc3ccccc3)n[nH]c2C1=O`, the GI50 is 16 µM (inactive) in the assay with K562; 20.6 µM (inactive) in the assay on SF-295; 19.1 µM (inactive) with SR; 17.5 µM (inactive) in the assay with BT-549; 75.9 µM (inactive) with NCI/ADR-RES; 13 µM (inactive) in the assay on RPMI-8226. For the same compound, the GI50 in the assay with PC-3 was 30.4 µM (inactive); in the assay with Malme-3M it was 1.76 µM (inactive); in the assay on 786-0 it was 17.5 µM (inactive); in the assay with HL-60, 16.1 µM (inactive); with SNB-19 it was 14.7 µM (inactive); in the assay with A549, 19.6 µM (inactive). Moreover, the GI50 in the assay with MDA-MB-231 was 17.3 µM (inactive); in the assay on UACC-62 it was 5.79 µM (inactive); in the assay on UO-31 it was 14.6 µM (inactive); in the assay on MCF7, 8.07 µM (inactive); in the assay on Hs-578T, 24.2 µM (inactive).

For the compound `COC(=O)C1=COC(OC2OC(CO)C(O)C(O)C2O)C2C3CN4CCc5c([nH]c6ccccc56)C4(CC12)O3` (configuration not stated), the GI50 in the assay on K562, in the assay with SF-295, in the assay on SR, with RXF 393, in the assay with BT-549 and in the assay on NCI/ADR-RES was > 100 µM (inactive) throughout. Also, the GI50 in the assay with RPMI-8226, in the assay on PC-3, with Malme-3M, with 786-0, with DU-145 and in the assay with HL-60 was > 100 µM (inactive) in each case. For the same compound, the GI50 with SNB-19, with NCI-H226, in the assay with A549, with MDA-MB-231, with UACC-62 and in the assay on UO-31 was > 100 µM (inactive) throughout. The GI50 in the assay on MCF7 is > 100 µM (inactive).

For the compound `O=C(/N=N/c1ccccc1Cl)NNc1ccccc1Cl`, the GI50 was 27.8 µM (inactive) in the assay with K562; 27.5 µM (inactive) in the assay with SR; > 10 µM (inactive) with BT-549; 24.7 µM (inactive) in the assay on RPMI-8226; 30 µM (inactive) in the assay on PC-3; 67 µM (inactive) in the assay with Malme-3M. The GI50 with 786-0 was 18.5 µM (inactive); in the assay on DU-145, 43.2 µM (inactive); in the assay on HL-60, 19.2 µM (inactive); in the assay with SNB-19, 63.2 µM (inactive); in the assay with NCI-H226, > 100 µM (inactive); with A549 it was 55.5 µM (inactive). The values for the GI50 in the assay with MDA-MB-231, in the assay on UACC-62 and with UO-31 were 54.3 µM (inactive), 43.4 µM (inactive) and 21.8 µM (inactive), respectively.

For the compound `Cc1cc2c(cc1C)[n+]([O-])c(NCCCN(C)C)c(C#N)[n+]2[O-]`, the GI50 was 37.5 µM (inactive) with K562; 42 µM (inactive) with SF-295; 13.2 µM (inactive) in the assay on SR; > 100 µM (inactive) with RXF 393; 79.1 µM (inactive) in the assay with BT-549; 85.1 µM (inactive) in the assay on NCI/ADR-RES. For the same compound, the GI50 in the assay with RPMI-8226 was 16.1 µM (inactive); with PC-3, > 100 µM (inactive); with Malme-3M, 95.1 µM (inactive); in the assay on 786-0, > 100 µM (inactive); in the assay with HL-60 it was 45.3 µM (inactive); in the assay on SNB-19 it was > 100 µM (inactive). The GI50 was 67 µM (inactive) in the assay with NCI-H226; > 100 µM (inactive) with A549; 76.4 µM (inactive) with UACC-62; > 100 µM (inactive) in the assay with UO-31; > 100 µM (inactive) in the assay on MCF7; > 100 µM (inactive) with Hs-578T.

As to `NS(=O)(=O)c1nnc(NC(=O)Nc2ccc(Cl)c(Cl)c2)s1`, the GI50 was 31.3 µM (inactive) with K562; 31.7 µM (inactive) in the assay with SF-295; 21.9 µM (inactive) with SR; 16.7 µM (inactive) in the assay with RXF 393; 20 µM (inactive) in the assay with BT-549; 21 µM (inactive) with NCI/ADR-RES. The GI50 with RPMI-8226 was 17.5 µM (inactive); in the assay with Malme-3M, 17.6 µM (inactive); in the assay with 786-0 it was 24.3 µM (inactive); in the assay with DU-145 it was 29.4 µM (inactive); in the assay on HL-60, 28.8 µM (inactive); in the assay on SNB-19, 21 µM (inactive). Also, the GI50 in the assay with NCI-H226 was 23.2 µM (inactive); in the assay on A549, 31 µM (inactive); in the assay on MDA-MB-231 it was 25.9 µM (inactive); in the assay on UACC-62, 16.2 µM (inactive); with UO-31, 27.4 µM (inactive); in the assay on MCF7, 26.9 µM (inactive). In addition, the GI50 in the assay with Hs-578T was 29.2 µM (inactive).

Take `Cc1cc(C#N)c(Nc2ccccc2[N+](=O)[O-])s1`: the GI50 was 45.2 µM (inactive) in the assay with K562; 24.8 µM (inactive) in the assay on SF-295; 40.2 µM (inactive) with SR; 3.96 µM (inactive) in the assay with RXF 393; 19.4 µM (inactive) with BT-549; 17.4 µM (inactive) with NCI/ADR-RES. Besides, the GI50 with RPMI-8226 was 22.6 µM (inactive); in the assay on PC-3 it was 23.8 µM (inactive); in the assay with 786-0, 49.9 µM (inactive); with DU-145 it was 17.7 µM (inactive); in the assay with SNB-19, 41 µM (inactive); with NCI-H226, 51.1 µM (inactive). Further, the GI50 was 85.3 µM (inactive) with A549; 24.7 µM (inactive) with MDA-MB-231; 54.2 µM (inactive) in the assay on UACC-62; 39.7 µM (inactive) in the assay on UO-31; 32.5 µM (inactive) in the assay with MCF7.

As to `COc1cc(C2C3=C(NC(=O)C2C#N)c2ccc4ccccc4c2OCC3)cc(OC)c1OC` (configuration not stated), the GI50 in the assay with K562 is 44.6 µM (inactive); with SF-295 it was 27.6 µM (inactive); in the assay on RXF 393, 14.4 µM (inactive); in the assay on BT-549 it was 17.3 µM (inactive); in the assay on NCI/ADR-RES it was 30.4 µM (inactive); in the assay with RPMI-8226, 7.83 µM (inactive). Moreover, the GI50 with PC-3 is 49.3 µM (inactive); with Malme-3M, 17.8 µM (inactive); in the assay with 786-0, 31.5 µM (inactive); in the assay with DU-145 it was 34.4 µM (inactive); in the assay on HL-60, 27 µM (inactive); in the assay on SNB-19, 28.3 µM (inactive). Besides, the GI50 is 54.2 µM (inactive) with A549, 15.1 µM (inactive) in the assay with UO-31, 30.9 µM (inactive) in the assay on MCF7 and 20.9 µM (inactive) in the assay on Hs-578T.

As to `CN(C)/C=[N+]1/[C@@H](Cc2ccccc2)C(=O)O[B-]1(F)c1ccccc1` (some centres not stated), the GI50 in the assay on K562, in the assay with SF-295, with SR, in the assay with BT-549, in the assay on NCI/ADR-RES and in the assay with RPMI-8226 was > 100 µM (inactive) each time. For the same compound, the GI50 in the assay with PC-3, in the assay on Malme-3M, in the assay with 786-0, in the assay on DU-145, in the assay on HL-60 and with SNB-19 was > 100 µM (inactive) in each case. Further, the GI50 in the assay with NCI-H226, with A549, in the assay with MDA-MB-231, in the assay on UACC-62, in the assay on UO-31 and with MCF7 was > 100 µM (inactive) in each case.

Regarding `CN(C)Cc1cc(C(=O)/C=C/c2ccc(Br)cc2)cc(CN(C)C)c1O`, the GI50 in the assay with K562 was 2.43 µM (inactive); in the assay on SF-295, 5.58 µM (inactive); with SR, 5.85 µM (inactive); in the assay on RXF 393, 2.05 µM (inactive); with NCI/ADR-RES, 16.7 µM (inactive); with RPMI-8226, 4.74 µM (inactive). Moreover, the GI50 in the assay on PC-3 is 1.67 µM (inactive); in the assay with Malme-3M it was 16.6 µM (inactive); with 786-0 it was 5.28 µM (inactive); with DU-145, 12.6 µM (inactive); in the assay with HL-60, 3.4 µM (inactive); in the assay with SNB-19 it was 12.8 µM (inactive). The GI50 in the assay with NCI-H226 is 17.3 µM (inactive); in the assay with A549, 8.22 µM (inactive); in the assay with MDA-MB-231, 3.21 µM (inactive); with UO-31, 1.82 µM (inactive); in the assay with MCF7, 6.61 µM (inactive); with Hs-578T it was 18.7 µM (inactive).

For `OCSc1nn(CO)c(=S)s1`, the GI50 is 20.7 µM (inactive) in the assay on K562; 26.9 µM (inactive) with SF-295; 0.0643 µM (active) in the assay with SR; 16.9 µM (inactive) in the assay with RXF 393; 21.1 µM (inactive) in the assay with NCI/ADR-RES; 25.4 µM (inactive) with RPMI-8226. The GI50 with PC-3 was 24.4 µM (inactive); in the assay with Malme-3M, 22.5 µM (inactive); in the assay with 786-0, 23.1 µM (inactive); with DU-145 it was 23.8 µM (inactive); in the assay on HL-60 it was 18 µM (inactive); with SNB-19, 25.8 µM (inactive). Moreover, the GI50 in the assay on NCI-H226 is 31.6 µM (inactive); in the assay on A549 it was 33.2 µM (inactive); with MDA-MB-231 it was 28.1 µM (inactive); in the assay with UACC-62 it was 17.5 µM (inactive); in the assay on MCF7, 15.4 µM (inactive); in the assay on Hs-578T, 14.3 µM (inactive).

Source of the values: ChEMBL document CHEMBL1201862, “PubChem BioAssay data set” (2004).
